Test results from patent US20230357179A1, “RAF KINASE INHIBITORS AND METHODS OF USE THEREOF” (Deciphera Pharmaceuticals, LLC, priority 2021, published 2023).

Assays:
[1] = target: T1, A-Raf kinase (Homo sapiens, UniProt P10398, Y301D/Y302D); assay: Biochemical assay for A-Raf.1 (coupled pyruvate kinase/lactate dehydrogenase); conditions: read-out: ARAF.1 IC50
T1 construct: purchased Sigma
Method in brief: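 A-Raf (5.55 nM) phosphorylating 30.1 nM MEK with 1 mM ATP was monitored by pyruvate kinase/lactate dehydrogenase-coupled NADH oxidation at 340 nm for 6 h at 30° C, in pH 7.5 Tris buffer with 15 mM MgCl2, 1% DMSO. Rates from 4–5 h gave percent inhibition; IC50 by four-parameter fit.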

[2] = target: T2, B-Raf kinase (Homo sapiens, UniProt P15056); assay: Biochemical assay for B-Raf.1 (coupled pyruvate kinase/lactate dehydrogenase); conditions: read-out: BRAF.1 IC50
T2 construct: GST (N); purchased Sigma
T2 sequence (P15056 416-766): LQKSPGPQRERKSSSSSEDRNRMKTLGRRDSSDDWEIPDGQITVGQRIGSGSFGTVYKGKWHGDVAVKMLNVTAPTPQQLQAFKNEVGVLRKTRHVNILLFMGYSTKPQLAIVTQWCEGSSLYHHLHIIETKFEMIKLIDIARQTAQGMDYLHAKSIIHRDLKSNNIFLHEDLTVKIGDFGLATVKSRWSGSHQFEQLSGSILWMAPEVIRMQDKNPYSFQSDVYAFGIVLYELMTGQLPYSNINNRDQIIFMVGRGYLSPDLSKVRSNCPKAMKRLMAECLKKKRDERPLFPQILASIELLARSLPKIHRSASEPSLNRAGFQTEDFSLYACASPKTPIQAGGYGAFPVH
Method in brief: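 NADH oxidation followed at 340 nm in a pyruvate kinase/lactate dehydrogenase-coupled assay with 0.13 nM B-Raf, 30.1 nM MEK substrate, 1 mM ATP, pH 7.5 Tris buffer, 1% DMSO. Monitored 6 h at 30 °C; rate taken from 4–5 h. IC50 from four-parameter sigmoidal fit.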

[3] = target: T3, B-Raf (V600E) kinase (Homo sapiens, UniProt P15056, V600E); assay: Biochemical assay for B-Raf (V600E).1 (coupled pyruvate kinase/lactate dehydrogenase); conditions: read-out: BRAF V600E.1 IC50
T3 construct: B-Raf (V600E) residues 416-766 with a; GST (N); purchased SignalChem
T3 sequence (P15056 416-766 V600E): as the sequence (P15056 416-766) above, with V185E counted along it
Method in brief: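 0.03 nM B-Raf(V600E) phosphorylating 30.1 nM MEK at 1 mM ATP, pH 7.5, coupled to PK/LDH, with NADH oxidation followed at 340 nm for 6 h at 30 °C. Rates taken from the 3-4 h window. IC50 from a four-parameter fit of percent inhibition.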

[4] = tested on: Miapaca-2 cells; assay: MiaPaca-2 cell proliferation assay (1), resazurin, 96-well; format: cell-based; conditions: Homo sapiens, MIA PaCa-2, inhibition of cell proliferation
Method in brief: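 Three thousand cells per well in DMEM with 10% FBS and 2.5% horse serum exposed to serially diluted compound in triplicate for 67-72 h at 37 °C, 5% CO2. Viability by resazurin (additional 5-6 h), fluorescence ex 540/em 600 nm; IC50 calculated.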

T1 sequence (P10398 with tags, fused parts or gaps Y301D/Y302D): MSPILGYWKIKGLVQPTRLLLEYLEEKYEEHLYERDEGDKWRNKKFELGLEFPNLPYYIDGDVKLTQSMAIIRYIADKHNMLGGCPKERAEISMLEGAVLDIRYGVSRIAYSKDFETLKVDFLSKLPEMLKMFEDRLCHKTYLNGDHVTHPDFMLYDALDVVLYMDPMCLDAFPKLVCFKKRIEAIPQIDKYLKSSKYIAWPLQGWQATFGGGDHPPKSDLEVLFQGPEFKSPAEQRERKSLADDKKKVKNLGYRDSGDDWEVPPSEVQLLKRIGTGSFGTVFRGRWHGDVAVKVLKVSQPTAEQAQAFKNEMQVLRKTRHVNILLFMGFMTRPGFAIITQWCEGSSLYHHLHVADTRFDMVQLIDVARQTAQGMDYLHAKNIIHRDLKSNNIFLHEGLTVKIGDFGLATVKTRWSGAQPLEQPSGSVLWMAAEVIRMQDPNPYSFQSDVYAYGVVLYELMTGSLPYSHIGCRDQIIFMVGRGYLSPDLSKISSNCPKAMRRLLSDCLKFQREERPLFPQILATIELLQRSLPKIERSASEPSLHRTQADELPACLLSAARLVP

Structure (SMILES) | IC50 [1] [nM] | IC50 [2] [nM] | IC50 [3] [nM] | IC50 [4] [nM]
CC(=O)Nc1cc(-c2cc(-c3cc(NC(=O)NCCC4(C)CC4)c(F)cc3C)cc(C3CC3)n2)ccn1 [Example 51] | > 1000 | ≤ 100 | ≤ 100 | 1000 to 10000
CC(=O)Nc1cc(-c2cc(-c3cc(NC(=O)NCC45CC(F)(C4)C5)c(F)cc3C)cc(OCCO)n2)ccn1 [Example 52] | > 1000 | ≤ 100 | ≤ 100 | 1000 to 10000
CC(=O)Nc1cc(-c2cc(-c3cc(NC(=O)NC4CCCCC4)c(F)cc3C)cc(OCCO)n2)ccn1 [Example 53] | 100 to 500 | ≤ 100 | ≤ 100 | 500 to 1000
CC(=O)Nc1cc(-c2cc(-c3cc(NC(=O)NCCC4(C(F)(F)F)CC4)c(F)cc3C)cc(C3CC3)n2)ccn1 [Example 54] | > 1000 | ≤ 100 | ≤ 100 | 1000 to 10000
CC(=O)Nc1cc(-c2cc(-c3cc(NC(=O)NCCC4(C)CC4)c(F)cc3C)cc(C)n2)ccn1 [Example 55] | 100 to 500 | ≤ 100 | ≤ 100 | 1000 to 10000
CC(=O)Nc1cc(-c2cc(-c3cc(NC(=O)NCCC4(C)CC4)ccc3C)cc(N3CCOCC3)n2)ccn1 [Example 57] | 500 to 1000 | ≤ 100 | ≤ 100 | 1000 to 10000
CC(=O)Nc1cc(-c2cc(-c3cc(NC(=O)NCCC(C)(C)C#N)c(F)cc3C)cc(C3CC3)n2)ccn1 [Example 59] | 100 to 500 | ≤ 100 | ≤ 100 | 1000 to 10000
COC(C)(C)CCNC(=O)Nc1ccc(C)c(-c2cc(-c3ccnc(NC(C)=O)c3)n(C)c(=O)c2)c1 [Example 60] | > 1000 | > 1000 | ≤ 100 | 1000 to 10000
Cc1ccc(NC(=O)N[C@H]2C[C@](C)(F)C2)cc1-c1cc(-c2ccnc(NC(=O)C3CC3)c2)nc(C2CC2)c1 [Example 61] | > 1000 | ≤ 100 | ≤ 100 | 1000 to 10000
CC(=O)Nc1cc(-c2cc(-c3cc(NC(=O)NC4CCC(F)(F)CC4)c(F)cc3C)cc(OCCO)n2)ccn1 [Example 63] | 500 to 1000 | ≤ 100 | ≤ 100 | 1000 to 10000
Cc1cc(F)c(NC(=O)NCCC2(C)CC2)cc1-c1cccc(-c2ccnc(NC(=O)C3CC3)c2)c1 [Example 64] | > 1000 | ≤ 100 | ≤ 100 | 1000 to 10000
Cc1cc(F)c(NC(=O)NCCC2(C)CC2)cc1-c1cccc(-c2cc(NC(=O)C3CC3)ncn2)c1 [Example 65] | > 1000 | ≤ 100 | ≤ 100 | 1000 to 10000
Cc1cc(F)c(NC(=O)NCCC(C)(C)C#N)cc1-c1cccc(-c2ccnc(NC(=O)C3CC3)c2)c1 [Example 66] | > 1000 | ≤ 100 | ≤ 100 | 1000 to 10000
Cc1cc(F)c(NC(=O)NCCC(C)(C)C#N)cc1-c1cccc(-c2cc(NC(=O)C3CC3)ncn2)c1 [Example 67] | 100 to 500 | ≤ 100 | ≤ 100 | 1000 to 10000
Cc1ccc(NC(=O)Nc2ccnc(C(C)(C)C#N)c2)cc1-c1ccnc(-c2ccnc(C(=O)NC3CC3)c2)c1 [Example 68] | > 1000 | ≤ 100 | ≤ 100 | 1000 to 10000
CNC(=O)c1cc(-c2cc(-c3cc(NC(=O)Nc4ccnc(C(C)(C)C#N)c4)ccc3C)ccn2)ccn1 [Example 69] | > 1000 | ≤ 100 | ≤ 100 | 1000 to 10000
COC(C)(C)CCNC(=O)Nc1cc(-c2cccc(-c3ccnc(NC(C)=O)c3)c2)c(C)cc1F [Example 71] | 100 to 500 | ≤ 100 | ≤ 100 | 1000 to 10000
CNC(=O)c1cc(-c2cccc(-c3cc(NC(=O)NCCC(C)(C)OC)c(F)cc3C)c2)ccn1 [Example 72] | > 1000 | 100 to 500 | ≤ 100 | 1000 to 10000

Structure (SMILES) | IC50 [1] [nM] | IC50 [2] [nM] | IC50 [3] [nM] | IC50 [4] [nM]
Cc1ccc(NC(=O)N2CCC(C(F)(F)F)C2)cc1-c1cccc(-c2cc(NC(=O)C3CC3)ncn2)c1 (stereo not drawn) [Example 73] | 500 to 1000 | ≤ 100 | ≤ 100 | 1000 to 10000
Cc1ncc(NC(=O)NCCC(C)(C)F)cc1-c1ccnc(-c2ccnc(NC(=O)C3CC3)c2)c1 [Example 75] | > 1000 | ≤ 100 | ≤ 100 | 1000 to 10000
Cc1cc(F)c(NC(=O)NCCC2(C)CC2)cc1-c1cc(OCCO)nc(-c2ccnc(NC(=O)C3CC3)c2)c1 [Example 76] | 100 to 500 | ≤ 100 | ≤ 100 | 1000 to 10000
COC(=O)Nc1cc(-c2cc(-c3cc(NC(=O)NCCC4(C)CC4)c(F)cc3C)cc(OCCO)n2)ccn1 [Example 77] | > 1000 | ≤ 100 | ≤ 100 | 1000 to 10000
Cc1cc(F)c(NC(=O)NCCC2(C)CC2)cc1-c1ccnc(-c2ccnc3c2CC(=O)N3)c1 [Example 79] | > 1000 | ≤ 100 | ≤ 100 | 1000 to 10000
Cc1cc(F)c(NC(=O)NC2CC(C)(C)C2)cc1-c1cc(OCCO)nc(-c2ccnc(NC(=O)C3CC3)c2)c1 [Example 80] | > 1000 | ≤ 100 | ≤ 100 | 1000 to 10000
Cc1ncc(NC(=O)NCCC2(C)CC2)cc1-c1nccc(-c2ccnc(NC(=O)C3CC3)c2)n1 [Example 81] | > 1000 | ≤ 100 | ≤ 100 | 1000 to 10000
COC(C)(C)CCNC(=O)Nc1cnc(C)c(-c2nccc(-c3ccnc(NC(=O)C4CC4)c3)n2)c1 [Example 82] | > 1000 | 100 to 500 | ≤ 100 | 1000 to 10000
COC(C)(C)CCNC(=O)Nc1cc(-c2nccc(-c3ccnc(NC(=O)C4CC4)c3)n2)c(C)cc1F [Example 83] | 500 to 1000 | ≤ 100 | ≤ 100 | 1000 to 10000
COC1(CCNC(=O)Nc2cnc(C)c(-c3cccc(-c4cc(NC(=O)C5CC5)ncn4)c3)c2)CC1 [Example 84] | > 1000 | ≤ 100 | ≤ 100 | 1000 to 10000
Cc1ccc(NC(=O)N2CC[C@H](C(F)(F)F)C2)cc1-c1cncc(-c2cc(NC(=O)C3CC3)ncn2)c1 [Example 195] | 500 to 1000 | ≤ 100 | ≤ 100 | 1000 to 10000
Cc1ccc(NC(=O)N2CC[C@H](C(F)(F)F)C2)cc1-c1cccc(-c2cc(NC(=O)C3CC3)ncn2)c1 [Example 200] | > 1000 | ≤ 100 | ≤ 100 | 1000 to 10000
Cc1ccc(NC(=O)N2CC[C@@H](C(F)(F)F)C2)cc1-c1cccc(-c2cc(NC(=O)C3CC3)ncn2)c1 [Example 201] | > 1000 | ≤ 100 | ≤ 100 | 1000 to 10000
CNC(=O)c1cc(-c2cc(-c3cc(NC(=O)NC4CCCCC4)c(F)cc3C)cc(OCCO)n2)ccn1 [Example 205] | > 1000 | ≤ 100 | ≤ 100 | 1000 to 10000
CNC(=O)c1cc(-c2cncc(-c3cc(NC(=O)N4CC[C@H](C(F)(F)F)C4)c(F)cc3C)c2)ccn1 [Example 214] | > 1000 | 500 to 1000 | 100 to 500 | 1000 to 10000
Cc1cc(F)c(NC(=O)N2CC[C@H](C(F)(F)F)C2)cc1-c1cncc(-c2cc(NC(=O)C3CC3)ncn2)c1 [Example 216] | 100 to 500 | ≤ 100 | ≤ 100 | 1000 to 10000
Cc1ccc(NC(=O)N2CC[C@@H](C(C)C)C2)cc1-c1cncc(-c2cc(NC(=O)C3CC3)ncn2)c1 [Example 217] | 100 to 500 | ≤ 100 | ≤ 100 | 500 to 1000
Cc1ccc(NC(=O)N2CC[C@H](C(C)C)C2)cc1-c1cncc(-c2cc(NC(=O)C3CC3)ncn2)c1 [Example 221] | 100 to 500 | ≤ 100 | ≤ 100 | 500 to 1000
